# According to patent US9963462B2 (priority 2015, dated 2018):
# Columns and labels:
# [1] = target: SNAP-hSPR (sepiapterin reductase, SPR) (Homo sapiens, UniProt P35270); assay: biochemical; assay type: binding; details: terbium labelled SNAP-hSPR / SSZ labelled SNAP-EGFP; read-out: hTR-FRET IC50
# [2] = tested on: BH4 production in human peripheral blood mononuclear cells (PBMCs); assay: hPBMC assay, inhibition of BH4 production by LC-MS (anti-CD3/anti-CD28 stimulated); assay type: cell-based; details: PBMC, read-out: hPBMC IC50
# [3] = tested on: BH4 levels in SK-N-BE (2) cells; assay: SKN-N-BE (2) cellular assay, BH4 levels by LC-MS; assay type: cell-based; details: Homo sapiens, SKNBE2, read-out: SK-N-BE(2) IC50, SK-N-BE (2) cells, BH4 levels by LC-MS
# SNAP-hSPR (sepiapterin reductase, SPR), sequence (P35270 whole entry): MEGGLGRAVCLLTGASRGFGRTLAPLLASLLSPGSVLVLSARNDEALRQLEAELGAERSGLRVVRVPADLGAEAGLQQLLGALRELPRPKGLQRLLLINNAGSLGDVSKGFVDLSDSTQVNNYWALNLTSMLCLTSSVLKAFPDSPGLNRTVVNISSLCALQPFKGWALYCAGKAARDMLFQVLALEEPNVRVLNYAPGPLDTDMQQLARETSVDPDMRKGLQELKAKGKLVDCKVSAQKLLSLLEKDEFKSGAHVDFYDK
Compound,IC50 [1],IC50 [2],IC50 [3]
Cc1c(C(=O)N2CCC(C#N)(c3ccccn3)CC2)cnn1-c1nn2cccc2c(=O)[nH]1 [Q-0952],1 nM,83 nM,300 nM
Cc1c(C(=O)N2CCCN(CC(F)(F)F)CC2)cnn1-c1nn2cccc2c(=O)[nH]1 [Q-0992],3 nM,98 nM,800 nM
Cc1c(C(=O)N2CC3(CN(CC(F)(F)F)C3)C2)cnn1-c1nn2cccc2c(=O)[nH]1 [Q-0891],4 nM,240 nM,900 nM
Cc1c(C(=O)N2CCC(C(F)(F)F)CC2C)cnn1-c1nc2c(c(=O)[nH]1)CCC2 (stereo not drawn) [Q-0423],5 nM,410 nM,100 nM
CC[C@H](C#N)C1CCN(C(=O)c2cnn(-c3nc4c(c(=O)[nH]3)CCC4)c2C)CC1 [Q-1041],1 nM,28 nM,46 nM
Cc1c(C(=O)N2C[C@@H]3C[C@H]2CN3Cc2ccccc2)cnn1-c1nn2cccc2c(=O)[nH]1 [Q-1033],8 nM,260 nM,400 nM
Cc1c(C(=O)N2CCC(C(F)(F)F)CC2)cnn1-c1nc2ccsc2c(=O)[nH]1 [Q-0379],2 nM,280 nM,84 nM
Cc1c(C(=O)N2CCC(C(C#N)CCF)CC2)cnn1-c1nn2cccc2c(=O)[nH]1 (stereo not drawn) [Q-1062],1 nM,97 nM,100 nM
Cc1c(C(=O)N2CCC(S(=O)(=O)C(C)C)CC2)cnn1-c1nn2cccc2c(=O)[nH]1 [Q-0977],1 nM,86 nM,500 nM
Cc1c(C(=O)N2CC(N3CCC(F)(F)C3)C2)cnn1-c1nn2cccc2c(=O)[nH]1 [Q-0812],3 nM,150 nM,1000 nM
Cc1c(C(=O)N2CCN(C(=O)OC(C)(C)C)C[C@H]2C)cnn1-c1nn2cccc2c(=O)[nH]1 [Q-0892],2 nM,76 nM,400 nM
Cc1c(C(=O)N2CC3CC(F)(F)C3C2)cnn1-c1nn2cccc2c(=O)[nH]1 (stereo not drawn) [Q-0804],1 nM,94 nM,300 nM
Cc1c(C(=O)N2CCN3CCC[C@@H]3C2)cnn1-c1nn2cccc2c(=O)[nH]1 [Q-0693],3 nM,450 nM,800 nM
Cc1c(C(=O)N2CCN(C(=O)OC(C)(C)C)[C@H](C)C2)cnn1-c1nn2cccc2c(=O)[nH]1 [Q-0899],1 nM,48 nM,300 nM
Cc1c(C(=O)N2CCC(C3(C(F)(F)F)CC3)CC2)cnn1-c1nc2c(c(=O)[nH]1)CCC2 [Q-0943],2 nM,38 nM,18 nM
COC1(C)CCN(C(=O)c2cnn(-c3nn4cccc4c(=O)[nH]3)c2C)CC1 [Q-0973],1 nM,80 nM,700 nM
Cc1c(C(=O)N2CCC(S(=O)(=O)c3ccc(F)c(F)c3)CC2)cnn1-c1nn2cccc2c(=O)[nH]1 [Q-0591],3 nM,45 nM,100 nM
Cc1c(C(=O)N2CCN(C(C)(C)C)CC2)cnn1-c1nn2cccc2c(=O)[nH]1 [Q-0888],5 nM,240 nM,400 nM
CCC(=C1CCN(C(=O)c2cnn(-c3nn4cccc4c(=O)[nH]3)c2C)CC1)C(F)(F)F [Q-1064],2 nM,220 nM,200 nM
Cc1c(C(=O)N2CC(F)(F)C2)cnn1-c1nn2cccc2c(=O)[nH]1 [Q-0789],8 nM,440 nM,2500 nM
Cc1c(C(=O)N2CCC3(CC2)CC(F)C3)cnn1-c1nn2cccc2c(=O)[nH]1 [Q-0998],1 nM,92 nM,300 nM
Cc1c(C(=O)N2CCC(C)(C#N)CC2)cnn1-c1nn2cccc2c(=O)[nH]1 [Q-0800],2 nM,47 nM,600 nM
Cc1c(C(=O)N2CCN(CC(F)(F)F)CC2)cnn1-c1nn2cccc2c(=O)[nH]1 [Q-0760],1 nM,75 nM,400 nM
Cc1c(C(=O)N2CCC3(CC3)C2)cnn1-c1nn2cccc2c(=O)[nH]1 [Q-0921],2 nM,47 nM,400 nM
Cc1c(C(=O)N2CCN(CC#N)CC2)cnn1-c1nn2cccc2c(=O)[nH]1 [Q-0918],2 nM,120 nM,600 nM
CCC(C1CCN(C(=O)c2cnn(-c3nn4cccc4c(=O)[nH]3)c2C)CC1)C(F)(F)F (stereo not drawn) [Q-1051],1 nM,27 nM,53 nM
Cc1c(C(=O)N2CCC(C(C#N)CCF)CC2)cnn1-c1nc2c(c(=O)[nH]1)CCC2 (stereo not drawn) [Q-1063],2 nM,120 nM,55 nM
Cc1c(C(=O)N2CC3C(C2)C3(C)C)cnn1-c1nc2c(c(=O)[nH]1)CCC2 (stereo not drawn) [Q-1048],1 nM,50 nM,200 nM

Compound,IC50 [1],IC50 [2],IC50 [3]
Cc1c(C(=O)N2CC3CCCC(C2)N3C(=O)OC(C)(C)C)cnn1-c1nn2cccc2c(=O)[nH]1 [Q-0972],1 nM,14 nM,65 nM
Cc1c(C(=O)N2CCC(F)(C#N)C2)cnn1-c1nn2cccc2c(=O)[nH]1 (stereo not drawn) [Q-1059],2 nM,2100 nM,1300 nM
Cc1c(C(=O)N2CC[C@H](N(C)C(=O)OC(C)(C)C)C2)cnn1-c1nn2cccc2c(=O)[nH]1 [Q-0851],2 nM,130 nM,500 nM
Cc1c(C(=O)N2CC(N(C)C(=O)OC(C)(C)C)C2)cnn1-c1nn2cccc2c(=O)[nH]1 [Q-0850],1 nM,74 nM,300 nM
Cc1c(C(=O)N2CCC3(CC2)CC3C(=O)N2CCCC2)cnn1-c1nn2cccc2c(=O)[nH]1 (stereo not drawn) [Q-0911],2 nM,110 nM,400 nM
Cc1c(C(=O)N2CCC(C(O)C(F)(F)F)CC2)cnn1-c1nn2cccc2c(=O)[nH]1 (stereo not drawn) [Q-1066],1 nM,82 nM,300 nM
CCC1(C#N)CCN(C(=O)c2nnn(-c3nn4cccc4c(=O)[nH]3)c2C)CC1 [Q-0777],1 nM,55 nM,300 nM
Cc1c(C(=O)N2CC3C(C2)C3(C)C)cnn1-c1nn2cccc2c(=O)[nH]1 (stereo not drawn) [Q-0927],1 nM,81 nM,200 nM
Cc1c(C(=O)N2CC3CCC(C2)C3(O)C(F)(F)F)cnn1-c1nn2cccc2c(=O)[nH]1 (stereo not drawn) [Q-0837],1 nM,63 nM,200 nM
Cc1c(C(=O)N2CC3(CCCC3)C2)cnn1-c1nn2cccc2c(=O)[nH]1 [Q-0813],1 nM,65 nM,100 nM
Cc1c(C(=O)N2CCN(C(=O)OC(C)(C)C)C[C@@H]2C)cnn1-c1nn2cccc2c(=O)[nH]1 [Q-0915],2 nM,92 nM,500 nM
Cc1c(C(=O)N2C3CCC2CC(O)(c2ccccc2)C3)cnn1-c1nn2cccc2c(=O)[nH]1 (stereo not drawn) [Q-0797],1 nM,27 nM,100 nM
Cc1c(C(=O)N2CCC(n3cccc3)CC2)cnn1-c1nn2cccc2c(=O)[nH]1 [Q-0941],1 nM,13 nM,300 nM
Cc1c(C(=O)N2CCC(C)(C#N)CC2)cnn1-c1nc2c(c(=O)[nH]1)CCC2 [Q-0518],3 nM,32 nM,500 nM
CCC(O)(C1CCN(C(=O)c2cnn(-c3nn4cccc4c(=O)[nH]3)c2C)CC1)C(F)(F)F (stereo not drawn) [Q-1052],1 nM,83 nM,44 nM
Cc1c(C(=O)N2CCC(C(O)C(F)(F)F)CC2)cnn1-c1nc2c(c(=O)[nH]1)CCC2 (stereo not drawn) [Q-1067],2 nM,160 nM,100 nM
Cc1c(C(=O)N2CCC(C#N)(CC(F)(F)F)CC2)cnn1-c1nn2cccc2c(=O)[nH]1 [Q-0986],2 nM,110 nM,700 nM
Cc1c(C(=O)N2CC3(C2)CC(F)(F)C3)nnn1-c1nn2cccc2c(=O)[nH]1 [Q-1024],1 nM,56 nM,300 nM
CCC1(C#N)CCN(C(=O)c2cnn(-c3nc4c(c(=O)[nH]3)CCC4)c2C)CC1 [Q-0519],3 nM,120 nM,53 nM
Cc1c(C(=O)N2CCN(C3CCC3)CC2)cnn1-c1nn2cccc2c(=O)[nH]1 [Q-0821],1 nM,51 nM,100 nM
Cc1c(C(=O)N2CC(N3CCC(F)(F)C3)C2)cnn1-c1nc2c(c(=O)[nH]1)CCC2 [Q-0937],4 nM,130 nM,800 nM
Cc1c(C(=O)N2CCC3(CC2)CN(C(=O)OC(C)(C)C)C3)cnn1-c1nc2c(c(=O)[nH]1)CCC2 [Q-0924],2 nM,51 nM,200 nM
Cc1c(C(=O)N2CCN(C(=O)OC(C)(C)C)CC2)cnn1-c1nn2cccc2c(=O)[nH]1 [Q-0750],3 nM,180 nM,500 nM
Cc1c(C(=O)N2CCN(CCC(F)(F)F)CC2)cnn1-c1nn2cccc2c(=O)[nH]1 [Q-1060],2 nM,220 nM,200 nM
Cc1c(C(=O)N2CCC2)cnn1-c1nn2cccc2c(=O)[nH]1 [Q-0794],10 nM,410 nM,3500 nM
"O=C(c1cnn(-c2nn3c(F)ccc3c(=O)[nH]2)c1)N1CCC(C(F)(F)F)CC1 [Q-0525, 7-fluoro-2-(4-(4-(trifluoromethyl)piperidine-1-carbonyl)-1H-pyrazol-1-yl)pyrrolo[1,2-f][1,2,4]triazin-4(3H)-one]",1 nM,24 nM,19 nM
Cc1c(C(=O)N2CC[C@@H](N(C)C(=O)OC(C)(C)C)C2)cnn1-c1nc2c(c(=O)[nH]1)CCC2 [Q-0571],3 nM,67 nM,73 nM
